# Experimental data from patent publication EP0686394A1, “Use of N-[[5-(naphthales-1-yl)-1,3-dioxan-2-yl]alkyl]acetamide derivatives for the preparation of medicaments for use in the treatment of neurodegenerative disorders” (SYNTHELABO, priority 1994, dated 1995).
# Read-outs that look alike come from different tables or passages of the source.
# Assays:
# [1] = tested on: ischémie cérébrale globale chez la souris; assay: global cerebral ischemia test in mice (cardiac arrest induced by intravenous magnesium chloride; survival time); assay type: in vivo; details: Mus musculus, read-out: dose efficace 3 secondes (DE3sec)
# Excerpt: Ainsi les composés utilisables selon l'invention ont été soumis au test de l'ischémie cérébrale globale chez la souris. L'ischémie est due à un arrêt cardiaque induit par une injection intraveineuse rapide de chlorure de magnésium. Dans ce test on mesure le "temps de survie", c'est-à-dire l'intervalle entre le moment de l'injection de chlorure de magnésium et le dernier mouvement respiratoire observable de chaque souris. Ce dernier mouvement est considéré comme l'indice ultime d'une fonction du système nerveux central. L'arrêt respiratoire apparaît approximativement 21 secondes après l'injection de chlorure de magnésium. Des souris mâles (SWISS OF₁ IFFA CREDO) sont étudiées par groupes de 10. Elles sont nourries et abreuvées ad libitum avant les essais. Le temps de survie est mesuré 10 minutes après l'administration intrapéritonéale ou 5 minutes après l'administration intraveineuse dans la veine caudale, des composés de formule (I). Les résultats sont donnés sous la forme de la différence entre le temps de survie mesuré dans un groupe de 10 souris ayant reçu le composé et le temps de survie mesuré dans un groupe de 10 souris ayant reçu le liquide véhicule. Les rapports entre le temps de survie et la dose du composé sont enregistrés graphiquement selon une courbe semilogarithmique. Cette courbe permet le calcul de la "dose efficace 3 secondes" (DE3sec), c'est-à-dire la dose (en mg/kg) qui produit une augmentation de 3 secondes du temps de survie par rapport au groupe témoin de 10 souris traitées par le véhicule. Une augmentation de 3 secondes du temps de survie est à la fois significative statistiquement et reproductible. A titre d'exemple, après injection par voie intrapéritonéale, la DE3sec du trans-N-[3-[5-(6-méthoxynaphtalén-1-yl)-1,3-dioxan-2-yl]propyl]acétamide dans ce test est de 11,4 mg/kg, la DE3sec du cis-N-[3-[5-(6-méthoxynaphtalén-1-yl)-1,3-dioxan-2-yl]propyl]acétamide dans ce test est de 6,1 mg/kg et la DE3sec du trans-N-[3-[5-[6-(cyclopropylméthoxy)naphtalén-1-yl]-1,3-dioxan-2-yl]propyl]acétamide dans ce test est de 6,1 mg/kg. Par voie intraveineuse, après solubilisation dans une solution de 2-hydroxypropyl-β-cyclodextrine, la DE3sec du trans-N-[3-[5-(6-méthoxynaphtalén-1-yl)-1,3-dioxan-2-yl]propyl]acétamide dans ce test est de 2,25 mg/kg.
# [2] = tested on: ischémie focale permanente par occlusion intraluminale de l'artère cérébrale moyenne chez le rat; assay: permanent focal ischemia model by intraluminal occlusion of the middle cerebral artery in the rat (infarct volume); assay type: in vivo; details: 1 mg/kg intraperitoneal, given 10 minutes, 2 h 30 and 5 h after occlusion; infarct volume evaluated 24 h after occlusion
# Excerpt: L'activité neuroprotectrice des composés de formule (I) a été également démontrée dans un modèle d'ischémie focale permanente par occlusion intraluminale de l'artère cérébrale moyenne chez le rat, selon une méthode analogue à celle décrite dans Stroke, 20, 84-91 (1989). Sous anesthésie au méthohexital sodique, on ligature l'artère ptérygopalatine, l'artère carotidienne commune et l'artère carotidienne externe gauche; on introduit un fil de nylon dans l'artère carotidienne interne sur une longueur d'environ 18 mm correspondant à la distance qui sépare la naissance de l'artère carotidienne interne de celle de l'artère cérébrale moyenne. Les composés sont administrés 10 minutes, 2 heures 30 et 5 heures après l'occlusion, aux doses de 0,3; 1; 3 et 10 mg/kg par voie intrapéritonéale. 24 heures après l'occlusion de l'artère cérébrale moyenne, on sacrifie les animaux et on prélève le cerveau. On évalue le volume de l'infarctus cérébral à partir de la mesure de la surface de la nécrose sur 6 coupes coronales colorées par le chlorure de 2,3,5-triphényltétrazolium. A titre d'exemple le trans-N-[3-[5-(6-méthoxynaphtalén-1-yl)-1,3-dioxan-2-yl]propyl]acétamide réduit le volume de l'infarctus cérébral d'environ 30% à la dose de 1 mg/kg.
# [3] = ip, 10 min, intraperitoneal injection, survival time measured 10 minutes after administration, dose giving a 3 second increase of survival time vs vehicle group
Compound,"ED (3 s increase of survival time) [1, 3]",réduit le volume de l'infarctus cérébral [2],"ED (3 s increase of survival time) ([1]; 5 min, intravenous route, solubilised in 2-hydroxypropyl-β-cyclodextrine solution, survival time measured 5 minutes after administration)"
"COc1ccc2c(cccc2[C@H]2CO[C@@H](CCCNC(C)=O)OC2)c1 [cis-N-[3-[5-(6-méthoxynaphtalén-1-yl)-1,3-dioxan-2-yl]propyl]acétamide]",6.1 mg/kg,–,–
"COc1ccc2c(cccc2[C@H]2CO[C@H](CCCNC(C)=O)OC2)c1 [trans-N-[3-[5-(6-méthoxynaphtalén-1-yl)-1,3-dioxan-2-yl]propyl]acétamide]",11.4 mg/kg,~30%,2.25 mg/kg
"CC(=O)NCCC[C@H]1OC[C@H](c2cccc3cc(OCC4CC4)ccc32)CO1 [trans-N-[3-[5-[6-(cyclopropylméthoxy)naphtalén-1-yl]-1,3-dioxan-2-yl]propyl]acétamide]",6.1 mg/kg,–,–
